Consider one compound from patent US20230338386A1, “DPP-IV INHIBITOR COMBINED WITH A FURTHER ANTIDIABETIC AGENT, TABLETS COMPRISING SUCH FORMULATIONS, THEIR USE AND PROCESS FOR THEIR PREPARATION” (Boehringer Ingelheim International GmbH, priority 2008, published 2023).

Each structure is given as a SMILES string.

This series in a line: Stability of FDC dosage forms (in words). It counts as physicochemical. The following applies: after 6 months storage at accelerated conditions; effect seems concentration dependent.

With `N=C(N)NCCC[C@H](N)C(=O)O` [L-arginine], the “suppression of degradation of BI 1356 free base in FDC combinations with metformin HCl” value is “able to suppress degradation”.
